Measurements: patent US20030054549A1, “Stem cell reinforcing material” (priority 2000, published 2003)

How the values were obtained:
[1] = test system: bone marrow hematopoietic stem cells; test: Example 4: mouse spleen colony method with radiation exposure and bone marrow transplant, female rats, mixture vs genistein vs 17β estradiole; format: in vivo; conditions: female ICR, 8 Gy; for spleen weight after radiation exposure per 10 g body weight: day 10 after bone marrow transplant
Experimental: They were reared with five rats in each group.
With the exception of comparative groups 8 and 9, bone marrow transplant was performed 24 hours after radiation exposure on the rats of comparative groups 10 and 11 as well as those of experimental groups 7, 8, and 9.
Body weight of all rats was determined when rearing was started, after one week, and after two weeks and before bone marrow transplant and on day 5, day 7 and day 10 after transplant.

[2] = test system: bone marrow hematopoietic cells and reproductive stem cells
Experimental: 1) Healthy male rats of equal body weight in each group were reared as the sample (male ICR) (six weeks old). They were reared with 10 rats each in comparative groups 3, 4 and 5 as well as experimental group 4 and 5 rats in experimental group 3.
The rats of comparative groups 4 and 5 as well as experimental groups 3 and 4 were systemically exposed one time only to a dose of 8 Gy after three weeks of rearing.
Bone marrow transplant was performed on the rats of each group 24 hours after radiation exposure. In this case, the femur of a donor rat of the same species was cut out. A small piece was cut off from both ends of the femur with a clean bench. Once 1 ml RPMI medium 1640 medium containing 10% antibiotic-antimycotic was injected with a syringe from one end through the medullary cavity, it was pushed into a test tube. The marrow cell count was adjusted to 10^5/ml and 0.5 ml was injected from a caudal vein. The donor rat had been systemically exposed to 2 Gy radiation and reared for three weeks on feed of 1 wt % of the koji mold soybean fermentation and cultivation product added to ordinary food.
All of the rats were sacrificed, the spleen was excised, spleen weight and the number of spleen colonies formed were determined, and the […] were likewise excised and testicle weight was determined after determining body weight on day 7 after bone marrow transplant.
Body weight of all rats was determined before bone marrow transplant and on day 7 after transplant.

## C[C@]12CC[C@@H]3c4ccc(O)cc4CC[C@H]3[C@@H]1CC[C@@H]2O [17β estradiole]
[1]; 10 μg/kg body weight in feed
  spleen weight after radiation exposure per 10 g body weight: lower values than experimental groups 7, 8 and 9
[1]; 10 μg/kg body weight in feed, day 10 after transplant
  spleen colony formation: no augmentation whatsoever

## O=c1c(-c2ccc(O)cc2)coc2cc(O)cc(O)c12 [genistein]
[1]; 30 mg/kg body weight in feed, vs comparative groups 9 and 10
  spleen weight after radiation exposure per 10 g body weight: significantly higher
[1]; 30 mg/kg body weight in feed, day 10 after transplant, vs comparative groups 10 and 11
  number of spleen colonies that formed following transplant after radiation exposure: significantly higher
[1]; 30 mg/kg body weight in feed, judging from day 7 after radiation exposure
  body weight: tendency toward an increase

## CN(C)CCOc1ccc(/C(=C(/CCCl)c2ccccc2)c2ccccc2)cc1 [toremifen]
[2]; male ICR, 30 mg/kg body weight in feed, 8 Gy, day 7 after bone marrow transplant, compared to unexposed comparative group 3
  spleen weight after radiation exposure per 10 g body weight: somewhat lower value than the others
[2]; male ICR, 30 mg/kg body weight in feed, 8 Gy, day 7 after transplant, compared to unexposed comparative group 3
  testicle weight after radiation exposure per 10 g body weight: likewise lower
[2]; rat, in vivo, 30 mg/kg
  toxicity (spleen weight and body weight lower): considerably stronger than isoflavone aglycone
